The values below come from patent publication US20210000986A1, “INCLUSION COMPLEXES SUITABLE FOR USE AS A HISTOTRIPSY AGENT” (T.C ISTANBUL MEDIPOL ÜNIVERSITESI, priority 2018, published 2021).

A short description of series [1]: Dynamic light scattering (DLS) size testing. The class given is physicochemical. From the text: The size of the complex plays an important role in determining the threshold for histotripsy. Small size particles are more easily injected and they accumulate highly in tumor tissue. […] The results obtained in the DLS tests are shown as a graph in FIG. 2. Herein BCD is beta-cyclodextrin; MBCD is methylated beta-cyclodextrin and MIC refers to the inclusion complex of methylated beta-cyclodextrin and perfluorohexane.

For the next series, the system named is kidney HEK-293T cells. The class given is cell-based. The protocol: The cell viability test is important to determine how the methylated beta-cyclodextrin perfluorohexane inclusion complex interacts with cells in the body.
Inclusion complexes according to the invention were tested using kidney HEK-293T cells from the reticulo-endothelial system organs responsible for cleansing blood in the body and removing various particles and antigens from blood flow and forming inflammatory mediators against immunological stimuli.
For this purpose, beta-cyclodextrin (BCD), methylated beta-cyclodextrin (MCD) and methylated beta-cyclodextrin and perfluorohexane inclusion complex (MIC) solutions at a concentration of 0.1 mg/mL, 0.5 mg/mL and 1 mg/mL were prepared. In addition, perfluorohexane (PFH) at amounts of 0.1 μL, 0.13 μL, 0.15 μL were also tested on the same cells. The amount of perfluorohexane tested was based on the amount of perfluorohexane in 1 mg/mL MIC. It was determined that in 1 mg/mL MIC there is 0.15 μL of perfluorohexane.

For `OC[C@H]1O[C@@H]2O[C@H]3[C@H](O)[C@@H](O)[C@@H](O[C@H]4[C@H](O)[C@@H](O)[C@@H](O[C@H]5[C@H](O)[C@@H](O)[C@@H](O[C@H]6[C@H](O)[C@@H](O)[C@@H](O[C@H]7[C@H](O)[C@@H](O)[C@@H](O[C@H]8[C@H](O)[C@@H](O)[C@@H](O[C@H]1[C@H](O)[C@H]2O)O[C@@H]8CO)O[C@@H]7CO)O[C@@H]6CO)O[C@@H]5CO)O[C@@H]4CO)O[C@@H]3CO` [beta-cyclodextrin], the “size (DLS)” value in series [1] was 16.42 nm.
The same measure, in the same setting: under methylated beta-cyclodextrin stands 19.55 nm.
With `FC(F)(F)C(F)(F)C(F)(F)C(F)(F)C(F)(F)C(F)(F)F` [perfluorohexane], the “toxicity (conclusion from cell viability)” value in the series on kidney HEK-293T cells is “not toxic”. Moreover, the cell viability (commonly the share of living cells, or the viability signal relative to a control) in the series on kidney HEK-293T cells (human, 0.15 μL) is on record as 89%.
